Patent publication US6518410B2, “Sulfoquinovosylacylglycerol derivative, and use thereof as medicaments” (Toyo Suisan Kaisha, Ltd., priority 1999, dated 2003)

Experiments:
[1] = target: T1, DNA polymerase α isolated from the bovine thymus (Bos taurus, UniProt A0AAA9TD94); test: Inhibitory effect against DNA polymerase α; format: biochemical; conditions: 0.05 U enzyme, 37° C., 60 minutes; mixture of S- and R-configurations; read-out: IC50, Inhibition Activity against DNA Polymerase α (converted)
T1 construct: isolated from the bovine thymus and purified with an antibody column; from tissue; host or cells: bovine thymus
T1 sequence (A0AAA9TD94 1-1441): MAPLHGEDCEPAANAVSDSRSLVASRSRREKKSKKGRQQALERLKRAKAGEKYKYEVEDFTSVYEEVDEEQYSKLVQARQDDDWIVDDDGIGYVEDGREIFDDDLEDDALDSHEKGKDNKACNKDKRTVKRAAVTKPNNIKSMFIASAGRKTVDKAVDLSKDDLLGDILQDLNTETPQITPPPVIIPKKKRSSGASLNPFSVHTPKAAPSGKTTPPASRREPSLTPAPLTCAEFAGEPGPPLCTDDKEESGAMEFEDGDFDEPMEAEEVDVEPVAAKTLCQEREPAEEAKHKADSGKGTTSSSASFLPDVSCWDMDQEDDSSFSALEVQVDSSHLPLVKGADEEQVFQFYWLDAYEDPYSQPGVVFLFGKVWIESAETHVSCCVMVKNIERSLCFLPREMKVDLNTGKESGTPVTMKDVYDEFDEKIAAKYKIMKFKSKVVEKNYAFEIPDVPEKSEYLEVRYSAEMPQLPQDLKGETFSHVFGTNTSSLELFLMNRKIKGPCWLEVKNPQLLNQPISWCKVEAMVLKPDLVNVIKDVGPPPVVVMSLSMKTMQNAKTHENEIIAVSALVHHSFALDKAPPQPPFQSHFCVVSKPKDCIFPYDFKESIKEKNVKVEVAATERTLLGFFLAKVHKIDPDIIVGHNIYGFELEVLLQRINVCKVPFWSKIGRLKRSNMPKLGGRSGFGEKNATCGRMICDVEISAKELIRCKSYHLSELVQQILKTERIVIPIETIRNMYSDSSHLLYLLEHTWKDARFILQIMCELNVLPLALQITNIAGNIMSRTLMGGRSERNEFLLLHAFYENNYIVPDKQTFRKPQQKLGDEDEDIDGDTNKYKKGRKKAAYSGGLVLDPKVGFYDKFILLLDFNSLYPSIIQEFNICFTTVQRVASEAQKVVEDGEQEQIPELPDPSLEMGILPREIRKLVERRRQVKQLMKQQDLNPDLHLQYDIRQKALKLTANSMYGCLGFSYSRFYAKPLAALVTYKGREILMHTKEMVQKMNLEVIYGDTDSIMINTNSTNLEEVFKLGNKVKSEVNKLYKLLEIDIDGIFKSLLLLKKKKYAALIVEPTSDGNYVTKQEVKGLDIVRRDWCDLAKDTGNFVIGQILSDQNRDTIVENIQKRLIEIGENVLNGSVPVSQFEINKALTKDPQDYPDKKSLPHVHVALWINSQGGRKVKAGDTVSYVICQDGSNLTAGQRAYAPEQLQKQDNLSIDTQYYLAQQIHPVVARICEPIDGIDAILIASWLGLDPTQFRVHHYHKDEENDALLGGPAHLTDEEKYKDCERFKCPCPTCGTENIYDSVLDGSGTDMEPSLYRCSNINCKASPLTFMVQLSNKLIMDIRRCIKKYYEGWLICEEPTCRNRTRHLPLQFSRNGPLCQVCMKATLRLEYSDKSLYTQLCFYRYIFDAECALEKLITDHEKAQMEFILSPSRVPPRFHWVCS
Procedure: An assay on inhibitory effect against a DNA polymerase α was carried out in the following manner.
0.05 U of a DNA polymerase α isolated from the bovine thymus and purified with an antibody column was mixed with each of compounds SQAG 1 to SQAG 14 listed in Table 1 above, each of which was dissolved in DMSO. Each mixture was added with a buffer of an inorganic salt necessary for the enzymatic reaction, [^3H]-labeled dTTP, and a compound for reaction containing a template DNA chain, and was incubated at 37° C. for 60 minutes.
After the enzymatic reaction was stopped, the resultant product was fixed on a dedicated filter to make measurement by a liquid scintillation counter. The amount of enzymatically synthesized dTTP was calculated as a radiation dose (cpm) of [^3H].

Colon cancer cells DLD-1 = test: Anticancer activity against cultured colon cancer cells (MTT assay); format: cell-based; conditions: Homo sapiens, DLD-1, 48 hours, mixture of S- and R-configurations, read-out: IC50, Anti-Cancer Activity against Colon Cancer Cells
Procedure: An assay on anticancer activity against cultured colon cancer cells was carried out in the following manner.
(§1) Colon cancer cells DLD-1 were maintained and subcultured in RPMI 1640 medium (containing 10% calf serum). Each of compounds SQAG 1, SQAG 2, SQAG 4, SQAG 6, SQAG 8, SQAG 11, SQAG 12, SQAG 13 and SQAG 14 shown in Table 1 was suspended and diluted in the medium, and then was cultivated in a 96-well plate together with the cancer cells at 3×10^3 cells/well. After the culture has been incubated for 48 hours, the MTT assay (Mosmann, T: Journal of immunological Method, 65, 55-63 (1983)) was carried out to compare viability rates.

[2] = tested on: gastric cancer cells NUGC-3; test: Anticancer activity against cultured gastric cancer cells (MTT assay); format: cell-based; conditions: Homo sapiens, NUGC-3, 48 hours, mixture of S- and R-configurations
Procedure: as §1
An assay on anticancer activity against cultured gastric cancer cells was carried out in the same manner as in the assay 4 except that gastric cancer cells NUGC-3 were used instead of the colon cancer cells DLD-1.

[3] = tested on: responder cells (T lymphocytes) with mitomycin C treated stimulator lymphocytes; test: Mixed lymphocytes reaction ([3H]-thymidine uptake of responder cells); format: cell-based, healthy persons; conditions: 4 days culture, then 12 hours [3H]-thymidine; FIGS. 1-4
Procedure: Mixed lymphocytes reaction
Lymphocytes serving as stimulator cells and responder cells were prepared from blood taken from individual healthy persons.
The responder cells were further separated from the lymphocyte cells to give T lymphocytes alone.
No treatment was applied to the responder cells. 10^6/mL of the stimulator cells were treated with 10 μg/mL of mitomycin C to stop the cell growth. Thereafter, the stimulator cells were washed with PBS (phosphate buffer saline) 4 times.
Subsequently, the responder cells were inoculated at a rate of 10^5 cells per well and then test substances (compounds SQAG 3, SQAG 5, SQAG 7, and SQAG 9 listed in Table 6 below) were added to a predetermined concentration. The reaction mixture was cultured at 37° C. for one hour. Thereafter, the stimulator cells were added at a rate of 10^5 cells per well. The mixture was cultured in a CO2 incubator at 37° C. for 4 days. After the incubation, the proliferation ability of the responder cells was quantified as follows. […] Then, the amount of [^3H]-thymidine uptake into the cells was determined by a scintillation counter.
FIGS. 1-4 show the amounts of [^3H]-thymidine uptake when SQAG 3, SQAG 5, SQAG 7, and SQAG 9 are added. […] In each of the FIGS. 1-4, the vertical axis indicates the intensity of radioactivity and the horizontal axis indicates the concentration of the test substance.

[4] = tested on: LEW rat skin graft on ACI rats; test: Rejection test in skin graft; format: in vivo; conditions: 10 mL of 1 mg/mL intraperitoneally daily for five days, graft taken on the seventh day
Procedure: Rejection test in skin graft
ACI rats and LEW rats were prepared and subjected to inhalation anesthesia of ether. After shaving the dorsum of each ACI rat, posterior lateral skin (1×1 cm) was removed to form a skin-flayed wound, and then a hemostatic treatment was performed. On the other hand, a piece of skin (1×1 cm) was obtained from the tail of each LEW rat. The donor skin was applied to the skin-flayed wound of each ACI rat and sutured with 5-0 nylon sutures. Then, gauze was applied to the surgically operated portion and a corset with a rubber bandage was further attached thereon to protect it. Such a skin transplantation operation was applied to all ten ACI rats in the same manner. Of the ten ACT rats, five rats were selected at random and classified as a control group, and the remaining five rats were classified as a test group to which test substances are to be administered. To the control group, 10 mL of physiological saline was intraperitoneally injected daily for five days after the surgery. To the test group, 10 mL solution of SQAG 9 dissolved in physiological saline at a concentration of 1 mg/mL was intraperitoneally injected daily for five days after the surgery in the same manner as in the control group.
On the seventh day after the operation, a graft was taken to prepare a tissue specimen. […]

IC50 (Colon cancer cells DLD-1) | IC50 [2] | SMILES | IC50 [1] | immunosuppressive activity (amount of [3H]-thymidine uptake) [3] | necrosis of the epidermal layer of the graft (histological observation) [4] | rats in which some parts of the epidermis adhered to the dermis (rejection suppressed) [4]
40 mg/L | 40 mg/L | CCCCCCCCCCCCCC(=O)OCC(O)CO[C@H]1O[C@H](CS(=O)(=O)O)[C@@H](O)[C@H](O)[C@H]1O (mixture of isomers) [SQAG 2] | 8.51 µM |  |  | 
31 mg/L | 40 mg/L | CCCCCCCCCCCCCCCC(=O)OCC(O)CO[C@H]1O[C@H](CS(=O)(=O)O)[C@@H](O)[C@H](O)[C@H]1O (mixture of isomers) [SQAG 4] | 6.29 µM |  |  | 
30 mg/L | 37.5 mg/L | CCCCCCCCCCCCCCCCCC(=O)OCC(O)CO[C@H]1O[C@H](CS(=O)(=O)O)[C@@H](O)[C@H](O)[C@H]1O (mixture of isomers) [SQAG 6] | 4.1 µM |  |  | 
42 mg/L | 50 mg/L | CCCCCCCCCCCCCCCC(=O)OCC(O)CO[C@@H]1O[C@H](CS(=O)(=O)O)[C@@H](O)[C@H](O)[C@H]1O (mixture of isomers) [SQAG 8] | 7.19 µM |  |  | 
28 mg/L | 24 mg/L | CCCCCCCCCCCCCCCCCCCC(=O)OCC(O)CO[C@H]1O[C@H](CS(=O)(=O)O)[C@@H](O)[C@H](O)[C@H]1O (mixture of isomers) [SQAG 11] | 1.96 µM |  |  | 

Second part, the compound before the results:

SMILES | IC50 (Colon cancer cells DLD-1) | IC50 [2] | IC50 [1] | immunosuppressive activity (amount of [3H]-thymidine uptake) [3] | necrosis of the epidermal layer of the graft (histological observation) [4] | rats in which some parts of the epidermis adhered to the dermis (rejection suppressed) [4]
CCCCCCCCCCCCCC(=O)OCC(CO[C@H]1O[C@H](CS(=O)(=O)O)[C@@H](O)[C@H](O)[C@H]1O)OC(=O)CCCCCCCCCCCCC (mixture of isomers) [SQAG 1] | 38 mg/L | 32 mg/L | 1.08 µM |  |  | 
CCCCCCCCCCCCCCCCCC(=O)OCC(CO[C@H]1O[C@H](CS(=O)(=O)O)[C@@H](O)[C@H](O)[C@H]1O)OC(=O)CCCCCCCCCCCCCCCCC (mixture of isomers) [SQAG 5] |  |  | 0.352 µM |  |  | 
CCCCCCCCCCCCCCCC(=O)OCC(CO[C@@H]1O[C@H](CS(=O)(=O)O)[C@@H](O)[C@H](O)[C@H]1O)OC(=O)CCCCCCCCCCCCCCC (mixture of isomers) [SQAG 7] |  |  | 0.377 µM |  |  | 
CCCCCCCCCCCCCCCCCC(=O)OCC(CO[C@@H]1O[C@H](CS(=O)(=O)O)[C@@H](O)[C@H](O)[C@H]1O)OC(=O)CCCCCCCCCCCCCCCCC (mixture of isomers) [SQAG 9] |  |  | 0.352 µM | considerably higher immunosuppressive activity than other compounds | three out of five rats | remaining two rats
CCCCCCCCCCCCCCCCCC(=O)OCC(O)CO[C@@H]1O[C@H](CS(=O)(=O)O)[C@@H](O)[C@H](O)[C@H]1O (mixture of isomers) [SQAG 10] |  |  | 5.13 µM |  |  | 
CCCCCCCCCCCCCCCCCCCCCC(=O)OCC(O)CO[C@H]1O[C@H](CS(=O)(=O)O)[C@@H](O)[C@H](O)[C@H]1O (mixture of isomers) [SQAG 12] | 20 mg/L | 23 mg/L | 1.56 µM |  |  | 
CCCCCCCCCCCCCCCCCCCCCCCC(=O)OCC(O)CO[C@H]1O[C@H](CS(=O)(=O)O)[C@@H](O)[C@H](O)[C@H]1O (mixture of isomers) [SQAG 13] | 20 mg/L | 20 mg/L | 1.49 µM |  |  | 
CCCCCCCCCCCCCCCCCCCCCCCCCC(=O)OCC(O)CO[C@H]1O[C@H](CS(=O)(=O)O)[C@@H](O)[C@H](O)[C@H]1O (mixture of isomers) [SQAG 14] | 18 mg/L | 20 mg/L | 1.43 µM |  |  | 
CCCCCCCCCCCCCCCC(=O)OCC(CO[C@H]1O[C@H](CS(=O)(=O)O)[C@@H](O)[C@H](O)[C@H]1O)OC(=O)CCCCCCCCCCCCCCC (some centres unmarked) [SQAG 3] |  |  | 0.503 µM |  |  | 
